Measured values published in patent US20120010235A1, “N-SUBSTITUTED PYRROLIDINES” (priority 2010, published 2012).
Where a name gives a salt, the structure may show the parent alone.

Test system: SJSA, an osteocarcinoma cell line
Assay: antiproliferative activity assay (tetrazolium dye, MTT) in SJSA cells
Conditions: cell-based MTT assay, inhibition of cell proliferation, read-out: TT IC50
Description: The pharmacological properties of the compounds of this invention may be confirmed by a number of pharmacological assays. The exemplified antiproliferative activity assay which follows has been carried out with the compounds according to the invention.
Cell proliferation was evaluated by the tetrazolium dye assay according to the procedure of Denizot and Lang (Denizot, F. and Lang, R. (1986) Rapid colorimetric assay for cell growth and survival. Modification to the terrazolium dye procedure giving improved sensitivity and reliability. J. Immunol. Methods 89, 271-277). The cell line used was SJSA, an osteocarcinoma cell line obtained from the American Type Cell Culture Collection (ATCC; Rockville, Md.). The cells were grown in PRMI with 10% FBS (Fetal Bovine Serum, Invitrogen).
Cells were plated at the appropriate seeding density to give logarithmic growth over the course of the assay in a 96-well tissue culture plate. Plates were incubated overnight at 37° C. in a humidified incubator with 5% CO2. The next day, test compounds were serially diluted 1:3 in the appropriate medium containing 3% DMSO. One-tenth final volume of each dilution was added […] to the plates containing cells. The same volume of 3% DMSO in medium was added to a row of control wells. Thus, the final concentration of DMSO in all wells was 0.3%. The plates were returned to the incubator, and at set time points (determined by their growth curves) plates were analyzed as follows: 3-(4,5-dimethylthiazole-2-yl)-2,5-diphenyl-2H-tetrazolium bromide (thiazolyl blue; MTT; Sigma) was added to each well to yield a final concentration of 1 mg/ml. Plates were returned to the incubator for 2.5 hours. The MTT-containing medium was removed and the resulting formazan metabolite was solubilized in 100% ethanol with shaking for 15 minutes at room temperature. Absorbances were read in a microtiter plate reader at a wavelength of 570 nm with a 650 nm reference. Percent inhibition (% INH) was calculated by subtracting the blank from all wells, then subtracting the ratio of the average absorbance of each triplicate (SAVE) by the average of the controls (CAVE) from 1.00. The final product was then multiplied by 100 (% INH=(1.00−SAVE/CAVE)×100). The concentration at which 50% inhibition (IC50) of cell proliferation is obtained was determined from the linear regression of a plot of the logarithm of the concentration versus percent inhibition.

SMILES | IC50 [nM]
CN1[C@@H](CC(C)(C)C)[C@](C#N)(c2ccc(Cl)cc2F)[C@@H](c2cccc(Cl)c2F)[C@@H]1C(=O)Nc1ccc(C(C)(C)C(=O)O)cc1 [Example 27, 2-(4-{[(2R,3S,4R,5S)-3-(3-chloro-2-fluoro-phenyl)-4-(4-chloro-2-fluoro-phenyl)-4-cyano-5-(2,2-dimethyl-propyl)-1-methyl-pyrrolidine-2-carbonyl]amino}-phenyl)-2-methyl-propionic acid] | 1950
COC(=O)c1nc(NC(=O)[C@H]2[C@H](c3cccc(Cl)c3F)[C@@](C#N)(c3ccc(Cl)cc3F)[C@H](CC(C)(C)C)N2C)n[nH]1 [Example 54, 5-{[(2R,3S,4R,5S)-3-(3-chloro-2-fluoro-phenyl)-4-(4-chloro-2-fluoro-phenyl)-4-cyano-5-(2,2-dimethyl-propyl)-1-methyl-pyrrolidine-2-carbonyl]-amino}-2H-[1,2,4]triazole-3-carboxylic acid methyl ester] | 750
CN1[C@@H](CC(C)(C)C)[C@](C#N)(c2ccc(Cl)cc2F)[C@@H](c2cccc(Cl)c2F)[C@@H]1C(=O)Nc1ncc(C(=O)O)[nH]1 [Example 55, 2-{[(2R,3S,4R,5S)-3-(3-chloro-2-fluoro-phenyl)-4-(4-chloro-2-fluoro-phenyl)-4-cyano-5-(2,2-dimethyl-propyl)-1-methyl-pyrrolidine-2-carbonyl]-amino}-3H-imidazole-4-carboxylic acid trifluoracetate salt] | 4000
CN1[C@@H](CC(C)(C)C)[C@](C#N)(c2ccc(Cl)cc2F)[C@@H](c2cccc(Cl)c2F)[C@@H]1C(=O)Nc1ccn(CC(C)(C)O)n1 [Example 58, (2R,3S,4R,5S)-3-(3-chloro-2-fluoro-phenyl)-4-(4-chloro-2-fluoro-phenyl)-4-cyano-5-(2,2-dimethyl-propyl)-1-methyl-pyrrolidine-2-carboxylic acid [1-(2-hydroxy-2-methyl-propyl)-1H-pyrazol-3-yl]-amide] | 3590

Now those with a lower IC50, led by results:

IC50 [nM] | SMILES
190 | COc1cc(C(=O)O)ccc1NC(=O)[C@H]1[C@H](c2cccc(Cl)c2F)[C@@](C#N)(c2ccc(Cl)cc2F)[C@H](CC(C)(C)C)N1C [Example 31, 4-{[(2R,3S,4R,5S)-3-(3-chloro-2-fluoro-phenyl)-4-(4-chloro-2-fluoro-phenyl)-4-cyano-5-(2,2-dimethyl-propyl)-1-methyl-pyrrolidine-2-carbonyl]-amino}-3-methoxy-benzoic acid]
660 | CC(C)CN1[C@@H](CC(C)(C)C)[C@](C#N)(c2ccc(Cl)cc2F)[C@@H](c2cccc(Cl)c2F)[C@@H]1C(=O)Nc1ccc(C(=O)O)cc1 [Example 32, 4-{[(2R,3S,4R,5S)-3-(3-chloro-2-fluoro-phenyl)-4-(4-chloro-2-fluoro-phenyl)-4-cyano-5-(2,2-dimethyl-propyl)-1-isobutyl-pyrrolidine-2-carbonyl]-amino}-benzoic acid]
90 | COc1cc(NC(=O)[C@H]2[C@H](c3cccc(Cl)c3F)[C@@](C#N)(c3ccc(Cl)cc3F)[C@H](CC(C)(C)C)N2CC2CC2)ccc1C(=O)O [Example 38, 4-{[(2R,3S,4R,5S)-3-(3-chloro-2-fluoro-phenyl)-4-(4-chloro-2-fluoro-phenyl)-4-cyano-1-cyclopropylmethyl-5-(2,2-dimethyl-propyl)-pyrrolidine-2-carbonyl]-amino}-2-methoxy-benzoic acid]
680 | CCOC(=O)C1CC1CN1[C@@H](CC(C)(C)C)[C@](C#N)(c2ccc(Cl)cc2F)[C@@H](c2cccc(Cl)c2F)[C@@H]1C(=O)Nc1ccc(C(=O)OC)cc1OC (stereo partly drawn) [Example 61, 4-{[(2R,3S,4R,5S)-3-(3-chloro-2-fluoro-phenyl)-4-(4-chloro-2-fluoro-phenyl)-4-cyano-5-(2,2-dimethyl-propyl)-1-(2-ethoxycarbonyl-cyclopropylmethyl)-pyrrolidine-2-carbonyl]-amino}-3-methoxy-benzoic acid methyl ester]
80 | C#CCN1[C@@H](CC(C)(C)C)[C@](C#N)(c2ccc(Cl)cc2F)[C@@H](c2cccc(Cl)c2F)[C@@H]1C(=O)Nc1ccc(C(=O)O)cc1OC [Example 62, 4-{[(2R,3S,4R,5S)-3-(3-chloro-2-fluoro-phenyl)-4-(4-chloro-2-fluoro-phenyl)-4-cyano-5-(2,2-dimethyl-propyl)-1-prop-2-ynyl-pyrrolidine-2-carbonyl]-amino}-3-methoxy-benzoic acid]
